Experiments:
[1] = test system: HPSE in U87 glioma-cell lysates; experiment: HSPG digest assay, U87 cell lysates; assay type: cell-based, human; details: inhibitor applied before or after cell lysis, comparable H35S solubilization profiles
Description: (§1) ECM coated 35 mm culture dishes containing ^35S labelled HS were prepared as previously described (Vlodavsky et al., Curr. Protoc. Cell. Biol., Chapter 10, Unit 10, 14). Briefly, bovine corneal endothelial cells were plated at an initial density of 2×10^5 cells/ml, with 4% dextran T-40 (Sigma) included in the growth medium. Na2^35SO4 (25 μCi/ml) was added to the incubation medium on days 2 and 5 after seeding. On day 12, subendothelial ECM is exposed by dissolving the cells with PBS containing 0.5% Triton X-100 and 20 mM NH4OH, followed by four washes with PBS. For HS-degradation assays, ECM coated dishes were incubated with 200 ng recombinant HPSE in 1 mL reaction mixture (10 mM buffer Phosphate-Citrate pH 6.0, 50 mM NaCl, 1 mM DTT, 1 mM CaCl2) containing HPSE inhibitors or DMSO control. Plates were incubated at 37° C. for 5 h, then assay medium collected and applied to a 0.9×30 cm Sepharose 6B size exclusion column. The Sepharose 6B column was eluted with PBS, and ^35S radioactivity of 0.2 mL fractions quantitated using a liquid scintillation analyzer (Packard BioScience). Digest assays with U87 cell lysates were carried out in a similar fashion, except plates were incubated for 18 h with cell extracts prepared from 1×10^6 U87 glioma cells lysed by 3× freeze/thaw cycles.

HPSE [2] = biological target: T1, HPSE (Homo sapiens, UniProt Q9Y251); experiment: HSPG digest assay, recombinant HPSE; assay type: biochemical
T1 sequence (Q9Y251 36-109 limits assumed): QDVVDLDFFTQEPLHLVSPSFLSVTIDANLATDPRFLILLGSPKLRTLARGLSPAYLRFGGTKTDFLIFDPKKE
T1 sequence (Q9Y251 158-543 limits assumed): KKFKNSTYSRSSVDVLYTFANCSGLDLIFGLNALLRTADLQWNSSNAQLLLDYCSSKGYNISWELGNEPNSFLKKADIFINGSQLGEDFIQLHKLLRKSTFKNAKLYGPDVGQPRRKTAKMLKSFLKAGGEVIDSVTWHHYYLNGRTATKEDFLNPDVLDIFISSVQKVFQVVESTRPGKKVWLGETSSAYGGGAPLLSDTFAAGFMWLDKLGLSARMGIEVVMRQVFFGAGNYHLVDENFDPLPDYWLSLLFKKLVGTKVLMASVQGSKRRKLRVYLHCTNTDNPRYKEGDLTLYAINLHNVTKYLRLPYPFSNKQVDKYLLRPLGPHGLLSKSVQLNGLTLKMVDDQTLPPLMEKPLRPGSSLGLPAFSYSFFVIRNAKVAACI
Description: as §1
The compounds of the invention were assessed against HPSE degradation of bona fide HSPGs in a physiologically relevant ECM-like environment. Cultured bovine corneal […] cells secrete a subendothelial basement membrane material rich in HSPGs, and their growth in the presence of ^35SO4^2− results in ^35S radiolabeled HSPGs (Vlodavsky et al., Curr Protoc Cell Biol, Chapter 10, Unit 10, 4, 2001). H^35S chains attached to these HSPGs are detectable after solubilization by HPSE, with enzyme inhibition leading to a corresponding reduction of signal.

HPSE [3] = biological target: T1, HPSE; experiment: Fondaparinux cleavage assay; assay type: biochemical
HPSE (platelet) = biological target: T2, HPSE (platelet) (Homo sapiens, UniProt Q9Y251); experiment: cABPP Assay 2, platelet lysates, HPSE; assay type: biochemical
T2 construct: endogenous in cells; host or cells: human platelet lysates
T2 sequence (Q9Y251 158-543 limits assumed): T1 sequence (Q9Y251 158-543 limits assumed)
T2 sequence (Q9Y251 36-109 limits assumed): T1 sequence (Q9Y251 36-109 limits assumed)
Description: For further competitive ABPP studies, a working protein mixture was prepared by mixing the platelet lysates (87.5 μL), buffer (pH 5.0, 150 mM, 157.5 μL) and 3 M NaCl solution (35 μL). The enzymatic reactions were carried out at a constant concentration of read-out 7 (100 nM, final). For each inhibitor 2, 12 and 13, triplicate sets of ten 0.5 mL low protein binding Eppendorf tubes were prepared. Working solutions of each inhibitor (1% DMSO (w/v), 5 μL) in a range of ten concentrations (100, 50, 25, 12.5, 6.3, 3.1, 1.6, 0.8, 0.4, 0 μM) were prepared with MilliQ water and kept on ice. The working protein mixture (8 μL) was added in each protein low binding 0.5 mL Eppendorf tube, and 1 μL of inhibitor solution was added while on ice.
Further cABPP studies were undertaken using platelet lysates to provide a more physiologically realistic environment. Platelet lysates contain complex mixtures of overlapping enzyme activities, including both endo- and exo-β-glucuronidases HPSE and GUSB respectively, thus provide a challenging environment to test inhibitor specificity.

CC(=O)NC1C(O)[C@H](O)C(CO)O[C@@H]1O[C@H]1C(O)C(O)[C@@H]2OC2C1C(=O)O (stereo partly drawn) [Compound 2, 4-O-(2-N-acetyl-2-deoxy-D-glucopyranosyl)-glucurono-cyclophellitol]
cell penetration / inhibition of intracellular HPSE pool [1]: can penetrate cells to inhibit the intracellular HPSE pool
inhibition of HPSE degradation of 35S-labelled HSPGs (HPSE [2]; 200 ng recombinant HPSE, pH 6.0, 5 h): robust, dose dependent inhibition
concentration giving comparable levels of inhibition (HPSE [2]; HSPG digest, recombinant HPSE): 1 µM
fold more potent than reference inhibitors #98 (10) and OGT2115 (11) (HPSE [3]): approximately 2 fold
IC50 (HPSE (platelet); apparent IC50, in-gel competitive ABPP-based assay, platelet lysate, read-out: In vitro IC50 HPSE (platelet)): 900 ± 300 nM
inhibitor concentration down to which HPSE signal is abrogated (HPSE (platelet); platelet lysates, preincubation with inhibitor): 2.5 µM

Reference: patent US20250276993A1, “PSEUDO-DISACCHARIDE COMPOUNDS” (UNIVERSITEIT LEIDEN, priority 2022, published 2025)
